Measured values published in paper PMC12865225 (Clinical and Translational Science, 2026).
Several values for one entry are separate records, joined by “and”; a condition that tells them apart may be missing. Equal entries are not always repeated. Marks after values point to notes of the source that are not given here.

Tests used:
[1] = target: T1, OAT3 (Homo sapiens, UniProt Q8TCC7); experiment: OAT3 inhibition with 30 min preincubation, fluorescein
T1 sequence (Q8TCC7 1-542): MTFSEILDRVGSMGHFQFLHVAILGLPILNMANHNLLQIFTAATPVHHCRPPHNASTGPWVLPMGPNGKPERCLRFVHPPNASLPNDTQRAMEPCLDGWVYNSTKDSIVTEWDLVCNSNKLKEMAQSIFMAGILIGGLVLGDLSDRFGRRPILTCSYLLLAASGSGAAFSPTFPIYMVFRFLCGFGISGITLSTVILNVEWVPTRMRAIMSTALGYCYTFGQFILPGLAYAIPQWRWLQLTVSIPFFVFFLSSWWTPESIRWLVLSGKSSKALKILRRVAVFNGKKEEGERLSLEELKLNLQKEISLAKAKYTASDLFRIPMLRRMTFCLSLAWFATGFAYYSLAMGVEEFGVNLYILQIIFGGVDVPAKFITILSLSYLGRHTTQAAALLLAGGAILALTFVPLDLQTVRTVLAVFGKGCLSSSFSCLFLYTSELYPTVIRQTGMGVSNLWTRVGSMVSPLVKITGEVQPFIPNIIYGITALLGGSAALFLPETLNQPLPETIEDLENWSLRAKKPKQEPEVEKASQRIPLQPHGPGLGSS
Protocol: In the OATP inhibition assays, inhibitors in warm TP‐buffer were directly applied to cells after media removal, followed by a 30‐min preincubation step in the presence of inhibitors. No preincubation step was included in the OAT inhibition assays. The inhibition assays were conducted as described above, except that inhibitors were included in the substrate solution. The rosuvastatin concentration was 2.5 μM in the OATP inhibition assays, and the transport assays were conducted for 2 min [24]. For the inhibition studies of OAT1 and OAT3, 5 μM fluorescein was assayed within 5 min, while 34 nM methotrexate within a 10 min assay was employed as the substrate for OAT2 and OAT4 [25, 26, 27, 28]. OAT1 and OAT3 cells were lysed with 200 μL of 1 M sodium hydroxide for 10 min, and 150 μL of these samples were transferred to a black well plate for fluorescein quantification. OAT2 and OAT4 cells were lysed with 200 μL of 0.1% Triton‐X100 for 10 min, and 150 μL of the samples were mixed with 4 mL of scintillation cocktail (Opti‐Fluor from PerkinElmer, Waltham, MA, USA). Each inhibition assay included a vehicle control without an inhibitor.
Cells were pre-incubated with the inhibitors and
vehicle for 30 min before the assay was initiated with fresh solutions of inhibitors and substrate.
The uptake into control cells was subtracted from the uptak e into OAT3-expressing cells for […]

[2] = target: T2, OAT4 (Homo sapiens, UniProt Q9NSA0); experiment: OAT4 inhibition, methotrexate uptake into HEK293 cells; format: cell-based; details: for Calculated R-value OAT4: R = I max,u/IC50, cut-off ≥ 0.02 (MATE threshold)
T2 construct: expressed in transfected cells; host or cells: HEK293 (recombinant baculovirus-mediated transduction)
T2 sequence (Q9NSA0 1-550): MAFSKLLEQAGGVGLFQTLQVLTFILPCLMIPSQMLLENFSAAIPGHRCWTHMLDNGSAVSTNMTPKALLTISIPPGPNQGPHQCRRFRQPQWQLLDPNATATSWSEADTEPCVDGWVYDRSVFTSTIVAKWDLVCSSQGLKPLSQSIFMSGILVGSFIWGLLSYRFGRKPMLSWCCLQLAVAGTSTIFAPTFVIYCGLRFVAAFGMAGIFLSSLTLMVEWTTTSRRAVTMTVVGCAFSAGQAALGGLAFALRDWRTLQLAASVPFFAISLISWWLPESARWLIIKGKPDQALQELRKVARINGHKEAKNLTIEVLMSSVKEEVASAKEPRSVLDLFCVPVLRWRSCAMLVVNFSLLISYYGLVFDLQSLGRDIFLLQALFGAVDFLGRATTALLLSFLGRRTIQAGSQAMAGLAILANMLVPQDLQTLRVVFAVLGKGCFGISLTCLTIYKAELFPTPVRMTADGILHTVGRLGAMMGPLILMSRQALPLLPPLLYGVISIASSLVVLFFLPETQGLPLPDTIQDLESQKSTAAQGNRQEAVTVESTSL
Protocol: The human transporters OATP1B1, OATP1B3, OATP2B1, and OAT1‐OAT4 and a negative control protein (enhanced yellow fluorescent protein, eYFP) were transiently expressed in human embryonic kidney 293 (HEK293) cells by recombinant baculovirus‐mediated transduction. Baculoviruses carrying human genes for the transporters were prepared as reported previously. HEK293 cells were cultured in DMEM containing 10% fetal bovine serum at 37°C and 5% CO2 and passaged two to three times per week. For the transport studies, 0.05 × 10^6 cells for 48‐well plates (OATPs) or 0.06 × 10^6 cells for 24‐well plates (OATs) were seeded onto cell‐culture treated well plates coated with poly‐D‐lysine. After 1 day, cells were transduced to produce recombinant proteins by changing media to DMEM containing 30 μL (48‐well plates) or 60 μL (24‐well plates) of recombinant baculovirus and 3 mM (OATs) or 5 mM (OATPs) sodium butyrate in a total media volume of 500 μL. The cells were cultured for a further 2 days before the transport assays.
For the transport studies, media were removed and cells were washed once with warm transport uptake buffer (TP‐buffer—pH 7.4 HBSS with 25 mM HEPES and 4 mM sodium bicarbonate). Each experiment included triplicate (OATP) or duplicate (OAT) samples for every test condition. […]
In the OATP inhibition assays, inhibitors in warm TP‐buffer were directly applied to cells after media removal, followed by a 30‐min preincubation step in the presence of inhibitors. […] OAT1 and OAT3 cells were lysed with 200 μL of 1 M sodium hydroxide for 10 min, and 150 μL of these samples were transferred to a black well plate for fluorescein quantification. […]
For the inhibition data analysis, the average of measured concentrations in the control cells was subtracted from the average of measured concentrations in transporter‐expressing cells for each inhibitor concentration and then normalized to the vehicle sample that represents 100% transport activity. […]

Row | IC50 [1] | IC50 ([2]; IC50 (95% CI), μM OAT4, 34 nM methotrexate, 10 min, no preincubation) | Calculated R-value OAT4 [2] | Compound
1 | 18.3 µM | 7.2 µM and 7.23 µM | 0.19 ^d | Cc1onc(-c2c(Cl)cccc2Cl)c1C(=O)N[C@@H]1C(=O)N2[C@@H]1SC(C)(C)[C@@H]2C(=O)O [Dicloxacillin]
2 | 30.1 µM | – | 0.08 ^d | Cc1onc(-c2c(F)cccc2Cl)c1C(=O)N[C@@H]1C(=O)N2[C@@H]1SC(C)(C)[C@@H]2C(=O)O [Flucloxacillin]
